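Method: 48-hour compound exposure of cells in 96-well plates, five concentrations, linear interpolation of endpoints. GI50 marks 50% less growth. Definition used: TGI = concentration required for complete inhibition of growth.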
Columns and labels:
Experiment in all cases: DTP human tumour cell line panel, 48 h
786-0 renal = system: 786-0 renal
A498 renal = system: A498 renal
A549 NSCLC = system: A549 NSCLC
ACHN renal = system: ACHN renal
BT-549 breast = system: BT-549 breast
CAKI-1 renal = system: CAKI-1 renal
CCRF-CEM leukemia = system: CCRF-CEM leukemia
COLO 205 colon = system: COLO 205 colon
DU-145 prostate = system: DU-145 prostate
EKVX NSCLC = system: EKVX NSCLC
HCC-2998 colon = system: HCC-2998 colon
HCT-116 colon = system: HCT-116 colon
HCT-15 colon = system: HCT-15 colon
HL-60(TB) leukemia = system: HL-60(TB) leukemia
HOP-62 NSCLC = system: HOP-62 NSCLC
HOP-92 NSCLC = system: HOP-92 NSCLC
HS 578T breast = system: HS 578T breast
HT29 colon = system: HT29 colon
IGROV1 ovarian = system: IGROV1 ovarian
K-562 leukemia = system: K-562 leukemia
KM12 colon = system: KM12 colon
LOX IMVI melanoma = system: LOX IMVI melanoma
M14 melanoma = system: M14 melanoma
MALME-3M melanoma = system: MALME-3M melanoma
MCF7 breast = system: MCF7 breast
MDA-MB-231 breast = system: MDA-MB-231 breast
MDA-MB-435 = system: MDA-MB-435
MOLT-4 leukemia = system: MOLT-4 leukemia
NCI-H226 lung = system: NCI-H226 lung
NCI-H23 lung = system: NCI-H23 lung
NCI-H460 lung = system: NCI-H460 lung
NCI-H522 lung = system: NCI-H522 lung
NCI/ADR-RES ovarian = system: NCI/ADR-RES ovarian
OVCAR-3 ovarian = system: OVCAR-3 ovarian
OVCAR-4 ovarian = system: OVCAR-4 ovarian
OVCAR-5 ovarian = system: OVCAR-5 ovarian
OVCAR-8 ovarian = system: OVCAR-8 ovarian
PC-3 prostate = system: PC-3 prostate
RPMI-8226 leukemia = system: RPMI-8226 leukemia
RXF 393 renal = system: RXF 393 renal
SF-268 CNS = system: SF-268 CNS
SF-295 CNS = system: SF-295 CNS
SF-539 CNS = system: SF-539 CNS
SK-MEL-2 melanoma = system: SK-MEL-2 melanoma
SK-MEL-5 melanoma = system: SK-MEL-5 melanoma
SK-OV-3 ovarian = system: SK-OV-3 ovarian
SN12C renal = system: SN12C renal
SNB-19 CNS = system: SNB-19 CNS
SNB-75 CNS = system: SNB-75 CNS
SR leukemia = system: SR leukemia
SW-620 colon = system: SW-620 colon
T-47D breast = system: T-47D breast
TK-10 renal = system: TK-10 renal
U251 CNS = system: U251 CNS
UACC-257 melanoma = system: UACC-257 melanoma
UACC-62 melanoma = system: UACC-62 melanoma
UO-31 renal = system: UO-31 renal

With COc1cc(-c2nccn2-c2ccc3ccccc3c2)cc(OC)c1OC the GI50 (786-0 renal) was 56.4 nM, the TGI (786-0 renal) was 12500 nM and the GI50 (A498 renal) was 77.8 nM. For the same compound, the TGI (A498 renal) was 1360 nM, the GI50 (A549 NSCLC) was 740 nM and the TGI (A549 NSCLC) was over 65500 nM. The GI50 (ACHN renal) was 2590 nM, the TGI (ACHN renal) was 49600 nM and the GI50 (BT-549 breast) was 99.5 nM. The TGI (BT-549 breast) was 15600 nM, the GI50 (CAKI-1 renal) was under 26.8 nM and the TGI (CAKI-1 renal) was 47000 nM. For the same compound, the GI50 (CCRF-CEM leukemia) was 48 nM, the TGI (CCRF-CEM leukemia) was 32500 nM and the GI50 (COLO 205 colon) was 40.2 nM. The TGI (COLO 205 colon) was 2440 nM, the GI50 (DU-145 prostate) was 84.4 nM and the TGI (DU-145 prostate) was over 32300 nM. The GI50 (EKVX NSCLC) was 379 nM, the TGI (EKVX NSCLC) was 48100 nM and the GI50 (HCC-2998 colon) was under 36.7 nM. For the same compound, the TGI (HCC-2998 colon) was 1660 nM, the GI50 (HCT-116 colon) was 40 nM and the TGI (HCT-116 colon) was 11700 nM. For the same compound, the GI50 (HCT-15 colon) was under 22.6 nM, the TGI (HCT-15 colon) was 12600 nM and the GI50 (HL-60(TB) leukemia) was under 17.6 nM. It also gave a TGI (HL-60(TB) leukemia) of 1330 nM, a GI50 (HOP-62 NSCLC) of 67.5 nM and a TGI (HOP-62 NSCLC) of 18300 nM. For the same compound, the GI50 (HOP-92 NSCLC) was 10100 nM, the TGI (HOP-92 NSCLC) was 31400 nM and the GI50 (HS 578T breast) was 66.8 nM. For the same compound, the TGI (HS 578T breast) was 71500 nM, the GI50 (HT29 colon) was under 19.6 nM and the TGI (HT29 colon) was 14000 nM. For the same compound, the GI50 (IGROV1 ovarian) was 1110 nM, the TGI (IGROV1 ovarian) was over 41200 nM and the GI50 (K-562 leukemia) was under 15.6 nM. It also gave a TGI (K-562 leukemia) of over 32300 nM, a GI50 (KM12 colon) of under 16.6 nM and a TGI (KM12 colon) of 18200 nM. The GI50 (LOX IMVI melanoma) was 1530 nM, the TGI (LOX IMVI melanoma) was 19000 nM and the GI50 (M14 melanoma) was 61.3 nM. For the same compound, the TGI (M14 melanoma) was 12700 nM, the GI50 (MALME-3M melanoma) was 16000 nM and the TGI (MALME-3M melanoma) was 47600 nM. The GI50 (MCF7 breast) was under 13 nM, the TGI (MCF7 breast) was 15800 nM and the GI50 (MDA-MB-231 breast) was 333 nM. It also gave a TGI (MDA-MB-231 breast) of 22600 nM, a TGI (MDA-MB-435) of 51.1 nM and a GI50 (MOLT-4 leukemia) of 70.8 nM. It also gave a TGI (MOLT-4 leukemia) of 17000 nM, a GI50 (NCI-H226 lung) of 206 nM and a TGI (NCI-H226 lung) of 20300 nM. The GI50 (NCI-H23 lung) was 78.9 nM, the TGI (NCI-H23 lung) was 5530 nM and the GI50 (NCI-H460 lung) was under 21.5 nM. For the same compound, the TGI (NCI-H460 lung) was 11700 nM, the GI50 (NCI-H522 lung) was under 21.8 nM and the TGI (NCI-H522 lung) was 20400 nM. For the same compound, the TGI (NCI/ADR-RES ovarian) was 27.3 nM, the GI50 (OVCAR-3 ovarian) was under 17.6 nM and the TGI (OVCAR-3 ovarian) was 1610 nM. For the same compound, the GI50 (OVCAR-4 ovarian) was 2040 nM, the TGI (OVCAR-4 ovarian) was 44600 nM and the GI50 (OVCAR-5 ovarian) was 469 nM. It also gave a TGI (OVCAR-5 ovarian) of 24200 nM, a GI50 (OVCAR-8 ovarian) of 489 nM and a TGI (OVCAR-8 ovarian) of over 88000 nM. The GI50 (PC-3 prostate) was 45.3 nM, the TGI (PC-3 prostate) was over 100000 nM and the GI50 (RPMI-8226 leukemia) was 190 nM. The TGI (RPMI-8226 leukemia) was 17500 nM, the GI50 (RXF 393 renal) was 254 nM and the TGI (RXF 393 renal) was 28700 nM. It also gave a GI50 (SF-268 CNS) of 335 nM, a TGI (SF-268 CNS) of 18900 nM and a GI50 (SF-295 CNS) of under 15.9 nM. It also gave a TGI (SF-295 CNS) of 15500 nM, a GI50 (SF-539 CNS) of 46.6 nM and a TGI (SF-539 CNS) of 625 nM. For the same compound, the GI50 (SK-MEL-2 melanoma) was 6200 nM, the TGI (SK-MEL-2 melanoma) was over 50300 nM and the GI50 (SK-MEL-5 melanoma) was under 19.5 nM. The TGI (SK-MEL-5 melanoma) was 4450 nM, the GI50 (SK-OV-3 ovarian) was 990 nM and the TGI (SK-OV-3 ovarian) was 74000 nM. The GI50 (SN12C renal) was 666 nM, the TGI (SN12C renal) was 22600 nM and the GI50 (SNB-19 CNS) was 98.5 nM. For the same compound, the TGI (SNB-19 CNS) was 24300 nM, the GI50 (SNB-75 CNS) was 60.5 nM and the TGI (SNB-75 CNS) was 24800 nM. The GI50 (SR leukemia) was under 14.7 nM, the TGI (SR leukemia) was 7060 nM and the GI50 (SW-620 colon) was 24 nM. The TGI (SW-620 colon) was 25200 nM, the GI50 (T-47D breast) was 17700 nM and the TGI (T-47D breast) was 94800 nM. For the same compound, the GI50 (TK-10 renal) was 2940 nM, the TGI (TK-10 renal) was over 87600 nM and the GI50 (U251 CNS) was 54.7 nM. For the same compound, the TGI (U251 CNS) was 16700 nM, the GI50 (UACC-257 melanoma) was 12900 nM and the TGI (UACC-257 melanoma) was 41300 nM. The GI50 (UACC-62 melanoma) was under 17.7 nM, the TGI (UACC-62 melanoma) was 14500 nM and the GI50 (UO-31 renal) was 1650 nM. The TGI (UO-31 renal) was over 62600 nM.
